Patent US9216973B2, “Insecticidal compounds” (Syngenta Participations AG, priority 2008, dated 2015)
Where two headings read alike, the source gives them in different places.

How the values were obtained:
[1] = system: Plutella xylostella (Diamond back moth); assay: Plutella xylostella larvae test on artificial diet; format: in vivo; settings: 144 h, 200 ppm (concentration in well 18 ppm), artificial diet, L2 larvae, larval mortality and growth regulation after 6 days
Description: (§1) This Example illustrates the insecticidal and acaricidal properties of compounds of formula (I). The tests were performed as follows:
(§2) Cotton leaf discs were placed on agar in a 24-well microtiter plate and sprayed with test solutions at an application rate of 200 ppm. After drying, the leaf discs were infested with 5 L1 larvae. The samples were checked for mortality, feeding behavior, and growth regulation 3 days after treatment (DAT). The following compound gave at least 80% control of Spodoptera littoralis: A1, A2, A5, A6, A7, A8, A10, A11, A12, A13, A14, A15, A16, A17, A18, A19, A21, A22, A23, A24, A25, A30, A31, A32, A33, A34, A35, A39, A40, A41 A42, A43, A44, A45, A46, A47, A48, A49, A50, A51, A53, A54, A55, A59, A60, A61, A62. Heliothis virescens (Tobacco budworm): Eggs (0-24 h old) were placed in 24-well microtiter plate on artificial diet and treated with test solutions at an application rate of 200 ppm (concentration in well 18 ppm) by pipetting. After an incubation period of 4 days, samples were checked for egg mortality, larval mortality, and growth regulation. The following compound gave at least 80% control of Heliothis virescens: A1, A2, A3, A4, A5, A6, A7, A8, A10, A11, A12, A13, A14, A15, A16, A18, A19, A21, A22, A24, A25, A30, A31, A32, A33, A34, A35, A37, A38, A39, A40, A42, A43, A44, A45, A46, A47, A48, A49, A50, A51, A55, AA57, A58, A59, A60, A61, A62. Plutella xylostella (Diamond back moth): 24-well microtiter plate (MTP) with artificial diet was treated with test solutions at an application rate of 200 ppm (concentration in well 18 ppm) by pipetting. After drying, the MTP's were infested with L2 larvae (7-12 per well). After an incubation period of 6 days, samples were checked for larval mortality and growth regulation. The following compound gave at least 80% control of Plutella xylostella: A1, A2, A5, A6, A7, A8, A9, A10, A11, A12, A13, A14, A15, A16, A17, A18, A19, A20, A21, A22, A24, A25, A30, A31, A32, A33, A34, A35, A37, A38, A39, A40, A42, A43, A44, A45, A46, A47, A48, A49, A50, A51, A52, A53, A54, A55, A57, A58, A59, A60, A61, A62, B3. Diabrotica balteata (Corn root worm): A 24-well microtiter plate (MTP) with artificial diet was treated with test solutions at an application rate of 200 ppm (concentration in well 18 ppm) by pipetting. After drying, the MTP's were infested with L2 larvae (6-10 per well). After an incubation period of 5 days, samples were checked for larval mortality and growth regulation. The following compound gave at least 80% control of Diabrotica balteata: A1, A2, A5, A6, A7, A10, A11, A12, A13, A14, A15, A16, A17, A18, A19, A21, A22, A24, A25, A30, A31, A32, A33, A34, A35, A38, A39, A40, A42, A43, A44, A45, A46, A47, A48, A49, A50, A59, A60, A61, A62. Thrips tabaci (Onion thrips): Sunflower leaf discs were placed on agar in a 24-well microtiter plate and sprayed with test solutions at an application rate of 200 ppm. After drying, the leaf discs were infested with an […] population of mixed ages. After an incubation period of 7 days, samples were checked for mortality. The following compounds gave at least 80% control of Thrips tabaci: A1, A2, A5, A6, A7, A8, A10, A12, A13, A14, A15, A16, A17, A18, A19, A21, A24, A25, A30, A31, A32, A33, A34, A35, A39, A42, A43, A44, A45, A46, A47, A48, A49, A50, A51, A53, A54, A57, A58, A59, A60, A61, A62. Tetranychus urticae (Two-spotted spider mite): Bean leaf discs on agar in 24-well microtiter plates were sprayed with test solutions at an application rate of 200 ppm. After drying, the leaf discs are infested with mite populations of mixed ages. 8 days later, discs are checked for egg mortality, larval mortality, and adult mortality. The following compound gave at least 80% control of Tetranychus urticae: A1, A2, A4, A5, A6, A7, A8, A10, A11, A12, A13, A14, A15, A16, A17, A18, A19, A20, A21, A22, A30, A31, A32, A33, A34, A35, A39, A40, A41, A42, A43, A44, A45, A46, A47, A48, A49, A50, A51, A53, A54, A55, A57, A59, A60, A61, A62.

[2] = system: Heliothis virescens (Tobacco budworm); assay: Heliothis virescens egg test on artificial diet; format: in vivo; settings: 96 h, read-out: control of Heliothis virescens
Description: as §1, §2

[3] = system: Spodoptera littoralis (Egyptian cotton leafworm); assay: Spodoptera littoralis cotton leaf disc spray test; format: in vivo; settings: foliar, 72 h, 200 ppm spray on cotton leaf discs, L1 larvae, mortality, feeding behavior, growth regulation 3 days after treatment
Description: as §1
Spodoptera littoralis (Egyptian cotton leafworm):
as §2, with “The following compound gave at least 80% control of Tetranychus urticae: A1, A2, A4, A5, A6, A7, A8, A10, A11, A12, A13, A14, A15, A16, A17, A18, A19, A20, A21, A22, A30, A31, A32, A33, A34, A35, A39, A40, A41, A42, A43, A44, A45, A46, A47, A48, A49, A50, A51, A53, A54, A55, A57, A59, A60, A61, A62.” left out

[4] = system: Tetranychus urticae (Two-spotted spider mite); assay: Tetranychus urticae bean leaf disc spray test; format: in vivo; settings: foliar, 192 h, read-out: control of Tetranychus urticae
Description: as §1, §2

[5] = system: Thrips tabaci (Onion thrips); assay: Thrips tabaci sunflower leaf disc spray test; format: in vivo; settings: foliar, 168 h, 200 ppm spray on sunflower leaf discs, population of mixed ages, mortality after 7 days
Description: as §1, §2

[6] = system: Diabrotica balteata (Corn root worm); assay: Diabrotica balteata larvae test on artificial diet; format: in vivo; settings: 120 h, 200 ppm (concentration in well 18 ppm), artificial diet, L2 larvae, larval mortality and growth regulation after 5 days
Description: as §1, §2

[7] = 200 ppm (concentration in well 18 ppm), eggs 0-24 h old on artificial diet, egg mortality, larval mortality, growth regulation after 4 days
[8] = 200 ppm spray on bean leaf discs, mite populations of mixed ages, egg, larval and adult mortality 8 days later

## Cc1cc(C2=NOC(c3cc(Cl)cc(Cl)c3)(C(F)(F)F)C2O)ccc1C(=O)NC1(C)CSC1 (centres unmarked) [A52]
[1]
  pest or weed control at 200 ppm: ≥ 80%

## O=C(NC1C[S+]([O-])C1)c1cccc2c(C3=NOC(c4cc(Cl)cc(Cl)c4)(C(F)(F)F)C3)cccc12 (centres unmarked) [A37]
[2]; [7]
  pest or weed control at 200 ppm: ≥ 80%
[1]
  pest or weed control at 200 ppm: ≥ 80%

## Cc1cc(C2=NOC(c3cc(Cl)cc(Cl)c3)(C(F)(F)F)C2S(C)(=O)=O)ccc1C(=O)NC1CSC1 (centres unmarked) [A41]
[3]
  pest or weed control at 200 ppm: ≥ 80%

## O=C(NC1CSC1)c1ccn(C2=NOC(c3cc(Cl)cc(Cl)c3)(C(F)(F)F)C2)n1 (centres unmarked) [B3]
[1]
  pest or weed control at 200 ppm: ≥ 80%

## O=C(NC1CSC1)c1ccc(C2=NOC(c3cc(Cl)cc(Cl)c3)(C(F)(F)F)C2)c2nsnc12 (centres unmarked) [A25]
[1]
  pest or weed control at 200 ppm: ≥ 80%

## Cc1c(C(=O)NC2CSC2)cnn1C1=NOC(c2cc(Cl)cc(Cl)c2)(C(F)(F)F)C1 (centres unmarked) [B2]
other
  melting point: 77 °C

## Cc1nn(C2=NOC(c3cc(Cl)cc(Cl)c3)(C(F)(F)F)C2)cc1C(=O)NC1CSC1 (centres unmarked) [B1]
other
  melting point: 177 to 180 °C

## O=C(NC1CSC1)c1cnn(C2=NOC(c3cc(Cl)cc(Cl)c3)(C(F)(F)F)C2)c1 (centres unmarked) [B4]
other
  melting point: 85 to 87 °C

## Cc1cc(N2CC2(c2cc(Cl)cc(Cl)c2)C(F)(F)F)ccc1C(=O)NC1(C)CSC1 (centres unmarked) [A3]
[2]
  pest or weed control at 200 ppm: ≥ 80%

## Cc1cc(C2CC(c3cc(Cl)cc(Cl)c3)(C(F)(F)F)ON2C)ccc1C(=O)NC1(C)CSC1 (centres unmarked) [A20]
[1]
  pest or weed control at 200 ppm: ≥ 80%
[4]; [8]
  pest or weed control at 200 ppm: ≥ 80%

## Cc1cc(N2CC2(c2cc(Cl)cc(Cl)c2)C(F)(F)F)ccc1C(=O)NC1CSC1 (centres unmarked) [A4]
[2]
  pest or weed control at 200 ppm: ≥ 80%
[4]
  pest or weed control at 200 ppm: ≥ 80%

## O=C(NC1C[S+]([O-])C1)c1ccc(C2=NOC(c3cc(Cl)cc(Cl)c3)(C(F)(F)F)C2)c2nsnc12 (centres unmarked) [A24]
[1]
  pest or weed control at 200 ppm: ≥ 80%

## Cc1cc(C2=NOC(c3cc(Cl)cc(Cl)c3)(C(F)(F)F)/C2=N/O)ccc1C(=O)NC1C[S+]([O-])C1 (centres unmarked) [A57]
[5]
  pest or weed control at 200 ppm: ≥ 80%
[2]; [7]
  pest or weed control at 200 ppm: ≥ 80%
[1]
  pest or weed control at 200 ppm: ≥ 80%
[4]; [8]
  pest or weed control at 200 ppm: ≥ 80%

## Cc1cc(N2CC(c3cc(Cl)cc(Cl)c3)(C(F)(F)F)OC2=O)ccc1C(=O)NC1(C)CSC1 (centres unmarked) [A9]
[1]
  pest or weed control at 200 ppm: ≥ 80%

## O=C(NC1CSC1)c1cccc2c(C3=NOC(c4cc(Cl)cc(Cl)c4)(C(F)(F)F)C3)cccc12 (centres unmarked) [A38]
[6]
  pest or weed control at 200 ppm: ≥ 80%
[2]; [7]
  pest or weed control at 200 ppm: ≥ 80%
[1]
  pest or weed control at 200 ppm: ≥ 80%

## C/C=C1\C(c2ccc(C(=O)NC3CSC3)c(C)c2)=NOC1(c1cc(Cl)cc(Cl)c1)C(F)(F)F (centres unmarked) [A30]
[6]
  pest or weed control at 200 ppm: ≥ 80%
[2]; [7]
  pest or weed control at 200 ppm: ≥ 80%
[1]
  pest or weed control at 200 ppm: ≥ 80%
